One substance from patent publication US8063059B2, “Use of compositions containing kappa-opioid receptor antagonists for the treatment of dissociative disorders” (Emodys GmbH, priority 2006, dated 2011) can be followed below.

In test [1] the test system is patient diagnosed with emotionally unstable personality disorder. Nature of the test: Medical Application Example 3: buprenorphine in patients with emotionally unstable personality disorder. The test is classed as in vivo, human. As to the method: In medical application examples 3 and 4 buprenorphine, alone or in conjunction with a kappa-opioid receptor antagonist, is used for patients diagnosed with emotionally unstable personality disorder as a possibility for treating the personality disorder and reducing the associated social, somatic and psychiatric consequences.
Buprenorphine was administered as a mucoadhesive sachet with an active ingredient content of 12 mg to a patient diagnosed with emotionally unstable personality disorder.

Test [2] relates to patient diagnosed with post traumatic stress disorders. In words: Medical Application Example 1: buprenorphine in a patient with post traumatic stress disorders. Type of test: in vivo, human. The following applies: one patient. As to the method: Buprenorphine in the form of a tablet with an active ingredient content of 12 mg was administered sublingually to a patient diagnosed with post traumatic stress disorders with the corresponding psychiatric symptoms.

Setting [3] is: one year following the start of treatment.

“2-(N-cyclopropylmethyl-4,5alpha-epoxy-3-hydroxy-6-methoxy-6,14-endoethanomorphinan-7alpha-yl)-3,3-dimethyl-2-butanol [Buprenorphine]”: the “self-injuries after one year” value in test [1] (one patient, daily ingestion of 12 mg, after one year) is on record as “complete lack of self-injuries”. In addition, in test [1] (one patient, mucoadhesive sachet, 12 mg), the self-injuring behaviour entry was “complete remission”. In addition, the frequency of self-cutting entry in test [1] (two other patients) is “significant reduction”. Also, in test [2] (setting [3]), the “flashback symptoms and daily life intrusions” value was “significant improvement”; the “lethargy and emotional swings, intrusive dissociation sensations (patient-indicated)” value is “clear subjective improvement”. Also, the “occurrence of flashback situations” value in test [2] (sublingual tablet, daily dosage increased from 12 mg to 16 mg) is recorded as “decrease significantly”.
